Source: US12252457B2, “Compositions and methods for reducing tactile dysfunction, anxiety, and social impairment” (President and Fellows of Harvard College, priority 2018, dated 2025)

Experiment: Bio-distribution of isoguvacine by LC-MS
Assay type: in vivo, mouse
Procedure: FIGS. 19A-19N show acute administration of the peripherally-restricted GABAA receptor agonist isoguvacine improves tactile hypersensitivity in five genetic and one environmental model of ASD. […] Two-way ANOVA with post-hoc Sidak's test, *, p<0.05. FIG. 19B: Response to a light air puff stimulus alone in mice following i.p. administration of either saline or 2 mg/kg midazolam treatment. Responses are expressed as percent of startle response to a 125 dB noise. Two-way ANOVA with post-hoc Sidak's test, *, p<0.05. FIG. 19C: Magnitude of startle response to a 125 dB noise in mice following i.p. administration of either saline or 2 mg/kg midazolam treatment. Responses are expressed as percent of startle response to a 125 dB noise. Two-way ANOVA with post-hoc Sidak's test, *, p<0.05. FIG. 19D: Magnitude of startle response to a 125 dB noise in mice following i.p. administration of saline, midazolam (2 mg/kg) or a peripherally-restricted GABAA receptor agonist, isoguvacine (2 mg/kg). Responses are expressed as percent of startle response to a 125 dB noise. Two-way ANOVA with post-hoc Sidak's test, *, p<0.05. FIGS. 19E-19G: Liquid chromatography mass spectrometry (LC-MS) quantified isoguvacine concentrations in cerebrospinal fluid (CSF) (FIG. 19E), blood (FIG. 19F) or liver (FIG. 19G) samples of mice treated with: i.p. saline, i.p. isoguvacine (“Iso.”, 20 mg/kg, samples collected 1, 3 or 24 hours post-injection), intracerebral injection isoguvacine (20 mg/kg, 1 hour post-injection), i.p. diazepam (“DZ”, 20 mg/kg, 1 hour post injection) or intracerebral injection diazepam (20 mg/kg, 1 hour post injection). FIG. 19H: Normalized peak chloride flux through α1β3γ2- and α2β3γ2-containing GABAA receptors in response to isoguvacine application. […] FIGS. 19I-19K: GABAA receptor subunit RNA expression levels across peripheral somatosensory neuron subtypes, for the alpha (FIG. 19I), beta (FIG. 19J), and gamma (FIG. 19K) subunit types. […] Two-way ANOVA with post-hoc Sidak's test, *, p<0.05. FIG. 19M: Response to a light air puff stimulus alone in mice following i.p. administration of either saline or 2 mg/kg isoguvacine treatment. Responses are expressed as percent of startle response to a 125 dB noise. Two-way ANOVA with post-hoc Sidak's test, *, p<0.05. FIG. 19N: Magnitude of startle response to a 125 dB noise in mice following i.p. administration of either saline or 2 mg/kg isoguvacine treatment. Responses are expressed as percent of startle response to a 125 dB noise. […]
FIGS. 28A-28U are related to FIGS. 21A-210. FIG. 28A: Liquid chromatography mass spectrometry (LC-MS) quantified isoguvacine concentrations in brain homogenate samples of mice treated with isoguvacine (2 mg/kg, i.p.) from P1-42. […] Responses are expressed as percent of startle response to a 125 dB startle noise. […]

[1] = after six-week treatment, 2 mg/kg i.p. daily starting at P0

- drug in blood and liver (20 mg/kg i.p.): detected in the blood and liver
- drug in brain or spinal cord [1]: not the brain or spinal cord
- drug in liver [1]: detected in liver
SMILES: O=C(O)C1=CCNCC1 [Isoguvacine, isoguvacine]
- drug in brain or cerebrospinal fluid (20 mg/kg i.p.): undetectable in the brain or cerebrospinal fluid
